According to patent US9000025B2, “Autotaxin inhibitors and uses thereof” (Amira Pharmaceuticals, Inc., priority 2010, dated 2015):

Target: T1, autotaxin (ATX) (Homo sapiens, UniProt Q13822)
T1 construct: conditioned medium from the human melanoma cell line, MDA-MB-4355, which endogenously expresses autotaxin; host or cells: MDA-MB-435S human melanoma cells; serum-free conditioned medium, concentrated 20-fold
Test: Native Autotaxin Choline Release Assay
Format: biochemical
Conditions: autotaxin in conditioned medium from human melanoma cell line; choline released from LPC; read-out: MDA-MB-435S Assay IC50
Method: ATX activity is determined by measuring the amount of choline realeased from the substrate, lyosphophatidylcholine (LPC). […] After reaching confluency, the cells are washed twice with phosphate-buffered saline (PBS) then cultured for 48 hours in phenol-red free, serum-free DMEM containing sodium pyruvate. […] 100 μl of a color mix which contains 4.5 mM 4-aminoantipyrine, 2.7 mM N-ethyl-N-(2-hydroxy-3-sulfopropyl)-m-toluidine, 21 units/ml horseradish peroxidase and 3 units/ml choline oxidase in 50 mM Tris, pH 8, 4.5 mM MgCl2 is added and the incubation continued at 37° C. for 10 minutes before reading the absorbance at 555 nm. The concentration of released choline in the sample is determined from a choline standard curve and is equal to the concentration of LPA produced.

| Compound | IC50 |
| --- | --- |
| CCn1cc(-n2c(C)c(Sc3cccc(C(=O)O)c3OC)c3ccc(Cl)cc32)cn1 [Compound 1-62, 3-[6-Chloro-2-methyl-1-(1-ethyl-1H-pyrazol-4-yl)-1H-indol-3-ylsulfanyl]-2-methoxy-benzoic acid] | < 300 nM |
| CCn1cc(-n2c(C)c(Sc3cccc(C(=O)O)c3C)c3ccc(Cl)cc32)cn1 [Compound 1-64, 3-[6-Chloro-2-methyl-1-(1-ethyl-1H-pyrazol-4-yl)-1H-indol-3-ylsulfanyl]-2-methyl-benzoic acid] | < 300 nM |
| Cc1cncc(-n2c(C)c(Sc3cccc(C(=O)O)c3C)c3ccc(Cl)cc32)c1 [Compound 1-65, 3-[6-Chloro-2-methyl-1-(5-methyl-pyridin-3-yl)-1H-indol-3-ylsulfanyl]-2-methyl-benzoic acid] | < 300 nM |
| CCn1cc(-n2c(C)c(Sc3cccc(C(=O)O)c3F)c3ccc(Cl)cc32)cn1 [Compound 1-67, 3-[6-Chloro-2-methyl-1-(1-ethyl-1H-pyrazol-4-yl)-1H-indol-3-ylsulfanyl]-2-fluoro-benzoic acid] | < 300 nM |
| Cc1ccc(-n2c(C)c(Sc3cccc(C(=O)O)c3)c3ccc(Cl)cc32)nn1 [Compound 1-68, 3-[6-Chloro-2-methyl-1-(6-methyl-pyridazin-3-yl)-1H-indol-3-ylsulfanyl]-benzoic acid] | 300 to 1000 nM |
| CCn1cc(-n2c(C)c(Sc3cccc(CC(=O)O)c3)c3ccc(Cl)cc32)cn1 [Compound 1-69, {3-[6-Chloro-1-(1-ethyl-1H-pyrazol-4-yl)-2-methyl-1H-indol-3-ylsulfanyl]-phenyl}-acetic acid] | < 300 nM |
| CCCn1cc(-n2c(C)c(Sc3cccc(CC(=O)O)c3)c3ccc(Cl)cc32)cn1 [Compound 1-70, {3-[6-Chloro-1-(1-propyl-1H-pyrazol-4-yl)-2-methyl-1H-indol-3-ylsulfanyl]-phenyl}-acetic acid] | < 300 nM |
| Cc1c(Sc2cccc(C(=O)O)c2)c2ccc(Cl)cc2n1-c1cnn(-c2ccc(F)cc2)c1 [Compound 1-71, 3-{6-Chloro-1-[1-(4-fluoro-phenyl)-1H-pyrazol-4-yl]-2-methyl-1H-indol-3-ylsulfanyl}-benzoic acid] | < 300 nM |
| CCCCn1cc(-n2c(C)c(Sc3cccc(C(=O)O)c3)c3ccc(Cl)cc32)cn1 [Compound 1-72, 3-[1-(1-Butyl-1H-pyrazol-4-yl)-6-chloro-2-methyl-1H-indol-3-ylsulfanyl]-benzoic acid] | < 300 nM |
| CCn1cc(-n2c(C)c(Sc3cccc(C4(C(=O)O)CC4)c3)c3ccc(Cl)cc32)cn1 [Compound 1-74, 1-{3-[6-Chloro-1-(1-ethyl-1H-pyrazol-4-yl)-2-methyl-1H-indol-3-ylsulfanyl]-phenyl}-cyclopropanecarboxylic acid] | < 300 nM |
| CCn1cc(-n2c(C)c(Sc3ccc(F)c(C(=O)O)c3)c3ccc(Cl)cc32)cn1 [Compound 1-76, 5-[6-chloro-1-(1-ethyl-1H-pyrazol-4-yl)-2-methyl-1H-indol-3-ylsulfanyl]-2-fluoro-benzoic acid] | < 300 nM |
| CCn1cc(-n2c(C)c(Sc3cc(F)cc(C(=O)O)c3)c3ccc(Cl)cc32)cn1 [Compound 1-129, 3-[6-Chloro-1-(1-ethyl-1H-pyrazol-4-yl)-2-methyl-1H-indol-3-ylsulfanyl]-5-fluoro-benzoic acid] | < 300 nM |
| Cc1ccc(-n2cc(-n3c(C)c(Sc4cccc(C(=O)O)c4)c4ccc(Cl)cc43)cn2)cc1 [Compound 1-130, 3-[6-Chloro-2-methyl-1-(1-p-tolyl-1H-pyrazol-4-yl)-1H-indol-3-ylsulfanyl]-benzoic acid] | < 300 nM |
| CCCn1cc(-n2c(C)c(Sc3cccc(C(=O)O)c3F)c3ccc(Cl)cc32)cn1 [Compound 1-131, 3-[6-Chloro-2-methyl-1-(1-propyl-1H-pyrazol-4-yl)-1H-indol-3-ylsulfanyl]-2-fluoro-benzoic acid] | < 300 nM |
| CCn1cc(-n2c(C)c(Sc3ccc(C)c(C(=O)O)c3)c3ccc(Cl)cc32)cn1 [Compound 1-132, 5-[6-Chloro-1-(1-ethyl-1H-pyrazol-4-yl)-2-methyl-1H-indol-3-ylsulfanyl]-2-methyl-benzoic acid] | < 300 nM |
| Cc1c(Oc2cccc(CO)c2)c2ccc(Cl)cc2n1Cc1ccccc1 [Compound 2-4, [3-(1-Benzyl-6-chloro-2-methyl-1H-indol-3-yloxy)-phenyl]-methanol] | > 1000 nM |
| Cc1c(Oc2cccc(CC#N)c2)c2ccc(Cl)cc2n1Cc1ccccc1 [Compound 2-5, [3-(1-Benzyl-6-chloro-2-methyl-1H-indol-3-yloxy)-phenyl]-acetonitrile] | > 1000 nM |
| Cc1c(Oc2cccc(Cc3nn[nH]n3)c2)c2ccc(Cl)cc2n1Cc1ccccc1 [Compound 2-6, 1-Benzyl-6-chloro-2-methyl-3-[3-(2H-tetrazol-5-ylmethyl)-phenoxy]-1H-indole] | > 1000 nM |
| Cc1c(Sc2cccc(/C=C/C(=O)O)c2)c2ccc(Cl)cc2n1Cc1ccccc1 [Compound 2-7, (E)-3-[3-(1-Benzyl-6-chloro-2-methyl-1H-indol-3-ylsulfanyl)-phenyl]-acrylic acid] | > 1000 nM |
| Cc1c(Sc2cccc(C(=O)NCC[N+](C)(C)C)c2)c2ccc(Br)cc2n1Cc1ccccc1 [Compound 2-10, {2-[3-(1-Benzyl-6-bromo-2-methyl-1H-indol-3-ylsulfanyl)-benzoylamino]-ethyl}-trimethyl-ammonium] | > 1000 nM |
| Cc1c(Sc2cccc(B(O)O)c2)c2ccc(Cl)cc2n1-c1cccnc1 [Compound 2-12, 3-(6-Chloro-2-methyl-1-pyridin-3-yl-1H-indol-3-ylsulfanyl)-phenylboronic acid] | > 1000 nM |
| Cc1[nH]c2ccc(Cl)cc2c1Sc1cccc(CC(=O)O)c1 [Compound 3-3, [3-(5-Chloro-2-methyl-1H-indol-3-ylsulfanyl)-phenyl]-acetic acid] | > 1000 nM |
| Cc1[nH]c2cccc(F)c2c1Sc1cccc(CC(=O)O)c1 [Compound 3-5, [3-(4-Fluoro-2-methyl-1H-indol-3-ylsulfanyl)-phenyl]-acetic acid] | > 1000 nM |
| COc1cccc2[nH]c(C)c(Sc3cccc(CC(=O)O)c3)c12 [Compound 3-6, [3-(4-Methoxy-2-methyl-1H-indol-3-ylsulfanyl)-phenyl]-acetic acid] | > 1000 nM |
| O=C(O)c1cccc(Sc2c(C(F)(F)F)[nH]c3cc(Cl)ccc23)c1 [Compound 3-7, 3-(6-Chloro-2-trifluoromethyl-1H-indol-3-ylsulfanyl)-benzoic acid] | > 1000 nM |

Other lines, results leading:

| IC50 | Compound |
| --- | --- |
| < 300 nM | Cc1c(Sc2c(C)n(-c3cnn(C)c3)c3cc(Cl)ccc23)cccc1C(=O)O [Compound 1-63, 3-[6-Chloro-2-methyl-1-(1-methyl-1H-pyrazol-4-yl)-1H-indol-3-ylsulfanyl]-2-methyl-benzoic acid] |
| < 300 nM | Cc1cncc(-n2c(C)c(Sc3cccc(C(=O)O)c3F)c3ccc(Cl)cc32)c1 [Compound 1-66, 3-[6-Chloro-2-methyl-1-(5-methyl-pyridin-3-yl)-1H-indol-3-ylsulfanyl]-2-fluoro-benzoic acid] |
| < 300 nM | CCc1cncc(-n2c(C)c(Sc3cccc(C(=O)O)c3F)c3ccc(Cl)cc32)c1 [Compound 1-73, 3-[6-Chloro-1-(5-ethyl-pyridin-3-yl)-2-methyl-1H-indol-3-ylsulfanyl]-2-fluoro-benzoic acid] |
| > 1000 nM | CCn1cc(-n2c(C)c(Sc3cccc(C(=O)O)c3)c3ccc(S(C)(=O)=O)cc32)cn1 [Compound 1-75, 3-[1-(1-Ethyl-1H-pyrazol-4-yl)-6-methanesulfonyl-2-methyl-1H-indol-3-ylsulfanyl]-benzoic acid] |
| > 1000 nM | Cc1[nH]c2cc(Cl)ccc2c1Sc1cccc(B(O)O)c1 [Compound 2-1, 3-(6-Chloro-2-methyl-1H-indol-3-ylsulfanyl)-phenylboronic acid] |
| > 1000 nM | COC(=O)c1cccc(Oc2c(C)n(Cc3ccccc3)c3cc(Cl)ccc23)c1 [Compound 2-3, 3-(1-Benzyl-6-chloro-2-methyl-1H-indol-3-yloxy)-benzoic acid methyl ester] |
| > 1000 nM | Cc1c(Sc2cccc(Cc3nn[nH]n3)c2)c2ccc(Cl)cc2n1Cc1ccccc1 [Compound 2-8, 1-Benzyl-6-chloro-2-methyl-3-[3-(2H-tetrazol-5-ylmethyl)-phenylsulfanyl]-1H-indole] |
| > 1000 nM | Cc1c(Sc2cccc(-c3nn[nH]n3)c2)c2ccc(Cl)cc2n1Cc1ccccc1 [Compound 2-9, 1-Benzyl-6-chloro-2-methyl-3-[3-(2H-tetrazol-5-yl)-phenylsulfanyl]-1H-indole] |
| > 1000 nM | Cc1c(Sc2cccc(C(=O)NCCN(C)C)c2)c2ccc(Br)cc2n1Cc1ccccc1 [Compound 2-11, 3-(1-Benzyl-6-bromo-2-methyl-1H-indol-3-ylsulfanyl)-N-(2-dimethylamino-ethyl)-benzamide] |
| > 1000 nM | Cc1[nH]c2cc(Cl)ccc2c1Sc1ccccc1CC(=O)O [Compound 3-1, [2-(6-Chloro-2-methyl-1H-indol-3-ylsulfanyl)-phenyl]-acetic acid] |
| > 1000 nM | Cc1[nH]c2cc(Cl)ccc2c1Sc1ccc(CC(=O)O)cc1 [Compound 3-2, [4-(6-Chloro-2-methyl-1H-indol-3-ylsulfanyl)-phenyl]-acetic acid] |
| > 1000 nM | Cc1[nH]c2c(Cl)cccc2c1Sc1cccc(CC(=O)O)c1 [Compound 3-4, [3-(7-Chloro-2-methyl-1H-indol-3-ylsulfanyl)-phenyl]-acetic acid] |
| > 1000 nM | Cc1[nH]c2cccc(Cl)c2c1Sc1cccc(B(O)O)c1 [Compound 3-9, 3-(4-Chloro-2-methyl-1H-indol-3-ylsulfanyl)-phenylboronic acid] |
